According to patent US20100331298A1, “Carboxamide Compounds and Their Use” (CytoPathfinder, Inc., priority 2007, published 2010):
Where a name gives a salt, the structure may show the parent alone.

Each compound was assayed against T1, CCR2b (Homo sapiens, UniProt P41597) (assay: AequoScreen assay, Ca++ flux (antagonist mode against reference agonist MCP-1)). Settings: AequoScreen CCR2b (FAST-060A) cells; inhibition of reference agonist MCP-1 at its EC80.
T1 construct: host or cells: AequoScreen CCR2b cells
T1 sequence (P41597 1-360 isoform P41597-2): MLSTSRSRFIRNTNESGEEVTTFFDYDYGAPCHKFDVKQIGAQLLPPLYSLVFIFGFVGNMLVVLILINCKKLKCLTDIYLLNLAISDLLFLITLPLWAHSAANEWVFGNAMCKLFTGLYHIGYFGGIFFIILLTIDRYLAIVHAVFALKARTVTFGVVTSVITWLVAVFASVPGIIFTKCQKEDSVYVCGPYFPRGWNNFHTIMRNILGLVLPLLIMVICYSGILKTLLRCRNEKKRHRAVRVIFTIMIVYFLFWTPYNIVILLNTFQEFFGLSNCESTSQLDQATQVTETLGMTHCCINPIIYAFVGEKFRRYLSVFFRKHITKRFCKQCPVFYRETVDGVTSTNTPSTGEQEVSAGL
Assay type: cell-based
Protocol: The biological activity of the compounds described herein can be evaluated using assays known in the art, such as the AequoScreen™ assay.
AequoScreen™ CCR2b (FAST-060A) cells grown to mid-log phase in culture media without antibiotics are detached with PBS-EDTA, centrifuged and resuspended in assay buffer (DMEM/HAM's F12 with HEPES, without phenol red+0.1% BSA protease free) at a concentration of 1×10^6 cells/mL. Cells are incubated at room temperature for at least 4 hours with coelenterazine h. Dose response curves are performed before testing. The reference agonist is MCP-1.
For agonist testing, 50 μL of cell suspension is mixed with 50 μL of test compound in a 96-well plate. The resulting emission of light is recorded using a Hamamatsu Functional Drug Screening System 6000 (FDSS 6000).
Following an incubation of 15 minutes after the first injection, 100 μL of the resulting cell suspension containing the test compound is mixed with 100 μL of the reference agonist in the 96 well test plate. The resulting emission of light is recorded using the same luminometer as for agonist testing.
To standardize the emission of recorded light (determination of the “100% signal”) across plates and across different experiments, some of the wells contained 100 μM digitonin, a saturating concentration of ATP (20 μM) and a concentration of reference agonist equivalent to the EC50 obtained during test validation.
Agonist activity of a test compound can be expressed as a percentage of the activity of the reference agonist at its EC100 concentration. Antagonist activity of a test compound can be expressed as a percentage of the inhibition of reference agonist activity at its EC80) concentration.

IC50 [µM]	Compound
< 0.2	Cn1c(=O)ccc2ccc(CN3CCC(CC4CC4)(C(=O)NCc4cc(C(F)(F)F)cc(C(F)(F)F)c4)CC3)cc21 [Example 1, N-(3,5-Bis(trifluoromethyl)benzyl)-4-(cyclopropylmethyl)-1-((1-methyl-2-oxo-1,2-dihydroquinolin-7-yl)methyl)piperidine-4-carboxamide]
> 1	Cn1c(=O)ccc2ccc(CN3CCC(C(=O)NCc4cc(C(F)(F)F)cc(C(F)(F)F)c4)(C4CC4)CC3)cc21 [Example 3, N-(3,5-Bis(trifluoromethyl)benzyl)-4-cyclopropyl-1-((1-methyl-2-oxo-1,2-dihydroquinolin-7-yl)methyl)piperidine-4-carboxamide]
> 1	O=C1COc2ccc(C(O)CN3CCC(CC4CC4)(C(=O)NCc4cc(C(F)(F)F)cc(C(F)(F)F)c4)CC3)cc2N1 (stereo not drawn) [Example 5, N-(3,5-Bis(trifluoromethyl)benzyl)-4-(cyclopropylmethyl)-1-(2-hydroxy-2-(3-oxo-3,4-dihydro-2H-benzo[b][1,4]oxazin-6-yl)ethyl)piperidine-4-carboxamide]
> 1	O=C1COc2ccc(CN3CCC(CC4CC4)(C(=O)NCc4cc(C(F)(F)F)cc(C(F)(F)F)c4)CC3)cc2N1 [Example 6, N-(3,5-Bis(trifluoromethyl)benzyl)-4-(cyclopropylmethyl)-1-((3-oxo-3,4-dihydro-2H-benzo[b][1,4]oxazin-6-yl)methyl)piperidine-4-carboxamide]
> 1	O=C(NCc1cc(C(F)(F)F)cc(C(F)(F)F)c1)C1(CC2CC2)CCN(Cc2ccc3cc[nH]c(=O)c3c2)CC1 [Example 8, N-(3,5-Bis(trifluoromethyl)benzyl)-4-(cyclopropylmethyl)-1-((1-oxo-1,2-dihydroisoquinolin-7-yl)methyl)piperidine-4-carboxamide]
0.2 to 1	O=C(NCc1cc(C(F)(F)F)cc(C(F)(F)F)c1)C1(CC2CC2)CCN(Cc2cccc3c(=O)[nH]ccc23)CC1 [Example 9, N-(3,5-Bis(trifluoromethyl)benzyl)-4-(cyclopropylmethyl)-1-((1-oxo-1,2-dihydroisoquinolin-5-yl)methyl)piperidine-4-carboxamide]
> 1	O=C1COc2ccc(CCN3CCC(CC4CC4)(C(=O)NCc4cc(C(F)(F)F)cc(C(F)(F)F)c4)CC3)cc2N1 [Example 10, N-(3,5-Bis(trifluoromethyl)benzyl)-4-(cyclopropylmethyl)-1-(2-(3-oxo-3,4-dihydro-2H-benzo[b][1,4]oxazin-6-yl)ethyl)piperidine-4-carboxamide]
> 1	O=C(NCc1cc(C(F)(F)F)cc(C(F)(F)F)c1)C1(CC2CC2)CCN(Cc2ccc3ccc(=O)[nH]c3c2)CC1 [Example 11, N-(3,5-Bis(trifluoromethyl)benzyl)-4-(cyclopropylmethyl)-1-((2-oxo-1,2-dihydroquinolin-7-yl)methyl)piperidine-4-carboxamide]
> 1	CC(C)CC1(C(=O)NCc2cc(C(F)(F)F)cc(C(F)(F)F)c2)CCN(Cc2ccc3c(c2)OCCN3C)CC1 [Example 17, N-(3,5-Bis(trifluoromethyl)benzyl)-4-isobutyl-1-((4-methyl-3,4-dihydro-2H-benzo[b][1,4]oxazin-7-yl)methyl)piperidine-4-carboxamide]
> 1	CC(C)CC1(C(=O)NCc2cc(C(F)(F)F)cc(C(F)(F)F)c2)CCN(Cc2ccc3c(c2)nnn3C)CC1 [Example 18, N-(3,5-Bis(trifluoromethyl)benzyl)-4-isobutyl-1-((1-methyl-1H-benzo[d][1,2,3]triazol-5-yl)methyl)piperidine-4-carboxamide]
> 1	O=C(NCc1cc(C(F)(F)F)cc(C(F)(F)F)c1)C1(CC2CC2)CCN(Cc2ccc3nc[nH]c3c2)CC1 [Example 19, 1-((1H-Benzo[d]imidazol-6-yl)methyl)-N-(3,5-bis(trifluoromethyl)benzyl)-4-(cyclopropylmethyl)piperidine-4-carboxamide]
< 0.2	Cn1c(=O)ccc2ccc(CN3CCC(CC4CC4)(C(=O)NCc4cc(C(F)(F)F)cc(C(F)(F)F)c4)C3)cc21 (stereo not drawn) [Example 20, N-(3,5-Bis(trifluoromethyl)benzyl)-3-(cyclopropylmethyl)-1-((1-methyl-2-oxo-1,2-dihydroquinolin-7-yl)methyl)pyrrolidine-3-carboxamide]
< 0.2	O=C(NCc1cc(C(F)(F)F)cc(C(F)(F)F)c1)C1(CC2CC2)CCN(Cc2ccc3[nH]ncc3c2)C1 (stereo not drawn) [Example 21, 1-((1H-Indazol-5-yl)methyl)-N-(3,5-bis(trifluoromethyl)benzyl)-3-(cyclopro-pylmethyl)pyrrolidine-3-carboxamide dihydrochloride]
0.2 to 1	O=C1COc2ccc(CN3CCC(CC4CC4)(C(=O)NCc4cc(C(F)(F)F)cc(C(F)(F)F)c4)C3)cc2N1 (stereo not drawn) [Example 22, N-(3,5-Bis(trifluoromethyl)benzyl)-3-(cyclopropylmethyl)-1-((3-oxo-3,4-dihydro-2H-benzo[b][1,4]oxazin-6-yl)methyl)pyrrolidine-3-carboxamide]
< 0.2	Cn1c(=O)ccc2ccc(CN3CCC(CC4CC4)(C(=O)NCc4cc(C#N)cc(C(F)(F)F)c4)C3)cc21 (stereo not drawn) [Example 23, N-(3-Cyano-5-(trifluoromethyl)benzyl)-3-(cyclopropylmethyl)-1-((1-methyl-2-oxo-1,2-dihydroquinolin-7-yl)methyl)pyrrolidine-3-carboxamide TFA salt]
< 0.2	Cn1c(=O)oc2ccc(CN3CCC(CC4CC4)(C(=O)NCc4cc(C#N)cc(C(F)(F)F)c4)C3)cc21 (stereo not drawn) [Example 24, N-(3-Cyano-5-(trifluoromethyl)benzyl)-3-(cyclopropylmethyl)-1-((3-methyl-2-oxo-2,3-dihydrobenzo[d]oxazol-5-yl)methyl)pyrrolidine-3-carboxamide HCl salt]
0.2 to 1	Cn1c(=O)oc2ccc(CN3CCC(CC4CC4)(C(=O)NCc4cc(C(F)(F)F)cc(C(F)(F)F)c4)CC3)cc21 [Example 26, N-(3,5-Bis(trifluoromethyl)benzyl)-4-(cyclopropylmethyl)-1-((3-methyl-2-oxo-2,3-dihydrobenzo[d]oxazol-5-yl)methyl)piperidine-4-carboxamide]
0.2 to 1	CN1C(=O)COc2ccc(CN3CCC(CC4CC4)(C(=O)NCc4cc(C(F)(F)F)cc(C(F)(F)F)c4)CC3)cc21 [Example 27, N-(3,5-Bis(trifluoromethyl)benzyl)-4-(cyclopropylmethyl)-1-((4-methyl-3-oxo-3,4-dihydro-2H-benzo[b][1,4]oxazin-6-yl)methyl)piperidine-4-carboxamide]
0.2 to 1	COCC1(C(=O)N2CC(c3cc(C(F)(F)F)ccn3)C2)CCN(Cc2ccc3oc(=O)n(C)c3c2)C1 (stereo not drawn) [Example 28, 5-((3-(Methoxymethyl)-3-(3-(4-(trifluoromethyl)pyridin-2-yl)azetidine-1-carbonyl)pyrrolidin-1-yl)methyl)-3-methylbenzo[d]oxazol-2(3H)-one]
0.2 to 1	COCC1(C(=O)N2CCN(c3cc(C(F)(F)F)ccn3)CC2)CCN(Cc2ccc3oc(=O)n(C)c3c2)C1 (stereo not drawn) [Example 29, 5-((3-(Methoxymethyl)-3-(4-(4-(trifluoromethyl)pyridin-2-yl)piperazine-1-carbonyl)pyrrolidin-1-yl)methyl)-3-methylbenzo[d]oxazol-2(3H)-one]

Compound	IC50 [µM]
N-(3,5-Bis(trifluoromethyl)benzyl)-4-(cyclopropylmethyl)-1-((3-methyl-2-oxo-2,3-dihydrobenzo[d]thiazol-6-yl)methyl)piperidine-4-carboxamide TFA salt [Example 25]	< 0.2
